Data taken from ChEMBL document CHEMBL4422675, “Pyrrolinone derivatives as a new class of P2X3 receptor antagonists Part 2: Discovery of orally bioavailable compounds” (Bioorg Med Chem Lett, 2019).

What was measured:
[1] = Half life in rat at 0.5 mg/kg, iv or 1 mg/kg, po; type: ADME, organism-based; settings: in vivo
[2] = Oral bioavailability in rat at 1 mg/kg; type: ADME, organism-based; settings: in vivo
in vivo = settings: rat, iv, 0.5 mg/kg
[3] = Total clearance in rat at 1 mg/kg, iv; type: ADME, organism-based; settings: in vivo
[4] = Half life in rat at 1 mg/kg, iv; type: ADME, organism-based; settings: in vivo
[5] = Oral bioavailability in rat at 3 mg/kg; type: ADME, organism-based; settings: in vivo
[6] = AUC in rat at 3 mg/kg, po; type: ADME, organism-based; settings: in vivo
[7] = Cmax in rat at 3 mg/kg, po; type: ADME, organism-based; design: dose 3 mg/kg, route oral; settings: in vivo

| Compound | half-life [1] [h] | bioavailability [2] [%] | clearance (in vivo) [mL/min/kg] | other results |
| --- | --- | --- | --- | --- |
| CC(C)C(=O)C1=C(O)C(=O)N(c2ccc(-c3ccsc3)cc2)C1c1ccccc1OCCO (stereo not given) | 1 | 40.8 | – | – |
| CC(C)(C)C(=O)C1=C(O)C(=O)N(c2ccc(-c3ccsc3)cc2)C1c1ccccc1OCCO (stereo not given) | 3.3 | 39.5 | – | – |
| CC(C)(C)C(=O)C1=C(O)C(=O)N(c2ccc(-c3ccon3)cc2)C1c1ccccc1OCCO (stereo not given) | 2.1 | 49.9 | 2.9 | – |
| COc1ccc(C(=O)C2=C(O)C(=O)N(c3ccc(-c4ccon4)cc3)C2c2ccccc2OC)cc1 (stereo not given) | 0.5 | 19.9 | 8.8 | – |
| CC(C)(C)C(=O)C1=C(O)C(=O)N(c2ccc(-c3cccs3)cc2)C1c1ccccc1OCCO (stereo not given) | 2 | 65.2 | 1.3 | – |
| C[S+]([O-])CCOc1ccccc1C1C(C(=O)C(C)(C)C)=C(O)C(=O)N1c1ccc(-c2ccsc2)cc1 (stereo not given) | 1.4 | 23.2 | 13.7 | – |
| COc1ccccc1[C@@H]1C(C(=O)C(C)C)=C([O-])C(=O)N1c1ccc(-c2ccsc2)cc1.[Na+] | – | – | – | clearance [3]: 0.39 mL/min/kg; half-life [4]: 3.2 h; bioavailability [5]: 37.4%; AUC [6]: 48400 ng·h/mL; Cmax [7]: 4230 ng/mL |
| CC(C)C(=O)C1=C(O)C(=O)N(c2ccc(-c3ccsc3)cc2)C1c1ccccc1OCC[S+](C)[O-] (stereo not given) | 1.1 | 0.7 | 23.2 | – |
| COc1ccccc1C1C(C(=O)C(C)(C)C)=C(O)C(=O)N1c1ccc(-c2ccon2)cc1 (stereo not given) | 2.6 | 77.9 | 1.3 | – |
| CN(C)CCOc1ccccc1C1C(C(=O)C(C)(C)C)=C(O)C(=O)N1c1ccc(-c2ccsc2)cc1 (stereo not given) | 1.5 | 15.5 | 7.3 | – |
| CC(C)(C)C(=O)C1=C(O)C(=O)N(c2ccc(-c3ccsc3)cc2)C1c1ccccc1OCC(=O)O (stereo not given) | 4.2 | 5.2 | – | – |
| COc1ccccc1C1C(C(=O)C(C)C)=C(O)C(=O)N1c1ccc(-c2ccsc2)cc1 (stereo not given) | 6.1 | 20 | 0.3 | – |

Now from value to compound, other results behind:

| half-life [1] [h] | bioavailability [2] [%] | clearance (in vivo) [mL/min/kg] | Compound | other results |
| --- | --- | --- | --- | --- |
| 4.2 | 18.9 | 5.1 | CCC(CC)C1C(C(=O)c2ccc(OC)cc2)=C(O)C(=O)N1c1ccc(-c2ccon2)cc1 (stereo not given) | – |
| 1.9 | 3.7 | – | O=C(O)c1ccc(C(=O)C2=C(O)C(=O)N(c3ccc(-c4ccon4)cc3)C2C2CCCCC2)cc1 (stereo not given) | – |
| 0.5 | 9 | – | COc1ccc(C(=O)C2=C(O)C(=O)N(c3ccc(-c4ccon4)cc3)C2c2ccccc2OCCO)cc1 (stereo not given) | – |
| 1.4 | 6.7 | 3.8 | O=C(C1=C(O)C(=O)N(c2ccc(-c3ccon3)cc2)C1C1CCCCC1)c1ccc(CO)cc1 (stereo not given) | – |
| 0.7 | 1.6 | – | CNC(=O)c1ccc(C(=O)C2=C(O)C(=O)N(c3ccc(-c4ccon4)cc3)C2C2CCCCC2)cc1 (stereo not given) | – |
| 1.4 | 28.1 | 4.6 | COc1ccc(C(=O)C2=C(O)C(=O)N(c3ccc(-c4ccon4)cc3)C2C2CCCCC2)cn1 (stereo not given) | – |
